# Measurements reported in patent US6339044B1, “N-P-Cyanoaryl nitrogen-containing heterocycles having pendent sulfur-containing groups” (Bayer Aktiengesellschaft, priority 1993, dated 2002).
# What was measured:
# [1] = tested on: wheat; experiment: Post-emergence test, wheat; assay type: in vivo; conditions: 30 g per hectare, after three weeks, cultivated plant
# Experimental: (§1) To prepare an expedient active compound preparation, 1 part by weight of active compound is mixed with the specified amount of solvent, the specified amount of emulsifier is added and the concentrate is diluted with water to the desired concentration.
# (§2) Test plants which have a height of 5-15 cm are sprayed with the active compound preparation in such a way that the amounts of active compound per unit area desired in each case are applied. After three weeks, the degree of damage of the plants is evaluated in % damage in comparison with the development of the untreated control.
# (§3) 0% denotes no effect (as untreated control)
# (§4) 100% denotes total destruction
# [2] = tested on: wheat; experiment: Pre-emergence test, wheat; assay type: in vivo; conditions: 60 g per hectare, after three weeks, cultivated plant
# Experimental: as §1
# Seeds of the test plants are sown in standard soil and are watered after 24 hours with the active compound preparation. The amount of water per unit area is expediently kept constant during this. The active compound concentration in the preparation is not important, only the application rate of the active compound per unit area is critical. After three weeks, the degree of damage of the plants is evaluated in % damage in comparison with the development of the untreated control. In the evaluation:
# as §3, §4
# [3] = tested on: Solanum; experiment: Post-emergence test, Solanum; assay type: in vivo; conditions: 30 g per hectare, after three weeks
# Experimental: as §1, §2, §3, §4
# [4] = tested on: Veronica; experiment: Post-emergence test, Veronica; assay type: in vivo; conditions: 30 g per hectare, after three weeks
# Experimental: as §1, §2, §3, §4
# [5] = tested on: Chenopodium; experiment: Post-emergence test, Chenopodium; assay type: in vivo; conditions: 30 g per hectare, after three weeks
# Experimental: as §1, §2, §3, §4
# [6] = tested on: horseradish leaf beetle larvae Phaedon cochleariae; experiment: Phaedon larvae test; assay type: in vivo; conditions: after 3 days, active compound concentration 0.1%, cabbage leaves dipped
# Experimental: Solvent: 7 parts by weight of dimethylformamide
# Emulsifier: 1 part by weight of alkylaryl polyglycol ether
# To produce an expedient active compound preparation, 1 part by weight of active compound is mixed with the specified amount of solvent and the specified amount of emulsifier and the concentrate is diluted with water to the desired concentration.
# Cabbage leaves (Brassica oleracea) are treated by dipping them into the active compound preparation of the desired concentration and populated with horseradish leaf beetle larvae Phaedon cochleariae, as long as the leaves are still moist.
# After the desired time, the destruction is determined in %. In the determination, 100% denotes that all beetle larvae have been destroyed; 0% denotes that no beetle larvae have been destroyed.
# [7] = tested on: Abutilon; experiment: Post-emergence test, Abutilon; assay type: in vivo; conditions: 30 g per hectare, after three weeks
# Experimental: as §1, §2, §3, §4
# [8] = tested on: Ipomoea; experiment: Post-emergence test, Ipomoea; assay type: in vivo; conditions: 30 g per hectare, after three weeks
# Experimental: as §1, §2, §3, §4
melting point [°C],SMILES,"degree of damage of the plants in % damage, wheat [1] [%]","degree of damage of the plants in % damage, wheat [2] [%]","degree of damage of the plants in % damage, Solanum [3] [%]","degree of damage of the plants in % damage, Veronica [4] [%]","degree of damage of the plants in % damage, Chenopodium [5] [%]",degree of destruction [6] [%],"degree of damage of the plants in % damage, Abutilon [7] [%]","degree of damage of the plants in % damage, Ipomoea [8] [%]"
,"Cn1c(C(F)(F)F)cc(=O)n(-c2cc(F)c(C#N)cc2F)c1=S [Example 3, 1-(4-cyano-2,5-difluoro-phenyl)-3,6-dihydro-2-thioxo-6-oxo-3-methyl-4-trifluoromethyl-1(2H)-pyrimidine]",5,0,100,100,100,100,100,100
68,"CCS(=O)(=O)N(C)c1cc(-n2c(=O)cc(C(F)(F)F)n(C)c2=S)c(F)cc1C#N [Example 33, 1-(4-cyano-2-fluoro-5-(N-ethylsulphonyl-N-methyl-amino)-phenyl)-3,6-dihydro-2-thio-6-oxo-3-methyl-4-trifluoromethyl-1(2H)-pyrimidine]",,,,,,,,
122,"CCS(=O)(=O)N(c1cc(-n2c(=O)cc(C(F)(F)F)n(C)c2=S)c(F)cc1C#N)S(C)(=O)=O [Example 32, 1-(4-cyano-2-fluoro-5-(N-ethylsulphonyl-N-methylsulphonyl-amino)-phenyl)-3,6-dihydro-2-thio-6-oxo-3-methyl-4-trifluoromethyl-1(2H)-pyrimidine]",,,,,,,,
,"CCS(=O)(=O)Nc1cc(-n2c(=O)cc(C(F)(F)F)n(C)c2=S)c(F)cc1C#N [Example 4, 1-(4-cyano-2-fluoro-5-ethylsulphonylamino-phenyl)-3,6-dihydro-2-thio-6-oxo-3-methyl-4-trifluoromethyl-1(2H)-pyrimidine]",5,0,100,100,100,,100,100
